Source: US12559502B2, “Thieno pyrimidines as ferroportin inhibitors” (Global Blood Therapeutics, Inc., priority 2020, dated 2026)

Target: T1, human ferroportin (Homo sapiens, UniProt Q9NP59)
T1 construct: expressed in transfected cells; host or cells: CHO cells, stably transfected, doxycycline-inducible
T1 sequence (Q9NP59 1-571): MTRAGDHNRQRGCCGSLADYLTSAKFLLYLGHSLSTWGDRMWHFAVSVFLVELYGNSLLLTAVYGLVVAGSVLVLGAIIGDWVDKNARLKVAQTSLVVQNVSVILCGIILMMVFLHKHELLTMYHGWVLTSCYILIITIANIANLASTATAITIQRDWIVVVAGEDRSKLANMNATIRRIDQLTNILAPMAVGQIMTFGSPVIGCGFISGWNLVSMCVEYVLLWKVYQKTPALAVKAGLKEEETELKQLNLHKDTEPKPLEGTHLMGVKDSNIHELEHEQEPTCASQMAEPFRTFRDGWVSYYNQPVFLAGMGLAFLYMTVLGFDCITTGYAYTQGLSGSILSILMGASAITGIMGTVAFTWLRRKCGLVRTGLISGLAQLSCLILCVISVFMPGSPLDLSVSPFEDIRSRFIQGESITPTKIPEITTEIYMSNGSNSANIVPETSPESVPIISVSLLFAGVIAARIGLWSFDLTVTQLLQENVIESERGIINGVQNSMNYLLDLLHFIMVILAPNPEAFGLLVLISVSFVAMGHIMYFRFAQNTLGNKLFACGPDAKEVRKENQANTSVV
Assay: In-vitro ferroportin internalization assay (luciferase reporter)
Assay type: cell-based
Settings: average pEC50; stably-transfected CHO cell line expressing human ferroportin tagged to a luciferase reporter; 6 h incubation with test compound; luciferase activity (Nano-Glo)
Method: The protocol for this assay is generally as described in WO2018/128828, incorporated herein by reference in its entirety. Functional internalization of ferroportin protein was measured using a stably-transfected CHO cell line expressing the human ferroportin tagged to a luciferase reporter. Cells were plated for 24 h in the presence of ferric ammonium citrate (FAC). Ferroportin protein expression was induced with doxycycline for 24 h. The next day, the compounds were added. Test compounds were dissolved in DMSO. Cells were incubated with the test compounds for 6 h, and subsequently luciferase activity was measured using the Nano-Glo Luciferase Assay System and Glomax (Promega, Madison, WI).
The average pEC50 was determined for the test compounds.

Row | pEC50 | SMILES
1 | 7.1 | COc1ccc(NC(=O)CN(C)c2nc(-c3cn(C)cn3)nc3sc(C)c(C)c23)cn1 [Compound 13, 2-{[5,6-dimethyl-2-(1-methyl-1H-imidazol-4-yl)thieno[2,3-d]pyrimidin-4-yl](methyl)amino}-N-(6-methoxypyridin-3-yl)acetamide]
2 | 7.6 | Cc1sc2nc(-c3cc(O[C@@H]4CCN(C)C4)ccn3)nc(N(C)CC(=O)NC(C)(C)C)c2c1C [Compound 19, N-tert-butyl-2-{[5,6-dimethyl-2-(4-{[(3R)-1-methylpyrrolidin-3-yl]oxy}pyridin-2-yl)thieno[2,3-d]pyrimidin-4-yl](methyl)amino}acetamide]
3 | 8 | Cc1sc2nc(-c3cc(OCCn4ccnc4)ccn3)nc(N(C)CC(=O)NC(C)(C)C)c2c1C [Compound 24, N-tert-butyl-2-[(2-{4-[2-(1H-imidazol-1-yl)ethoxy]pyridin-2-yl}-5,6-dimethylthieno[2,3-d]pyrimidin-4-yl)(methyl)amino]acetamide]
4 | 7.8 | Cc1sc2nc(-c3cc(OCCN(C)C)ccn3)nc(N(C)CC(=O)NC(C)(C)C)c2c1C [Compound 18, N-tert-butyl-2-[(2-{4-[2-(dimethylamino)ethoxy]pyridin-2-yl}-5,6-dimethylthieno[2,3-d]pyrimidin-4-yl)(methyl)amino]acetamide]
5 | 7 | Cc1sc2nc(-c3cn(C)cn3)nc(N(C)CC(=O)NC(C)(C)C)c2c1C [Compound 14, N-tert-butyl-2-{[5,6-dimethyl-2-(1-methyl-1H-imidazol-4-yl)thieno[2,3-d]pyrimidin-4-yl](methyl)amino}acetamide]
6 | 7.1 | Cc1ccc(NC(=O)CN(C)c2nc(-c3cn(C)cn3)nc3sc(C)c(C)c23)cn1 [Compound 12, 2-{[5,6-dimethyl-2-(1-methyl-1H-imidazol-4-yl)thieno[2,3-d]pyrimidin-4-yl](methyl)amino}-N-(6-methylpyridin-3-yl)acetamide]
7 | 8 | Cc1sc2nc(-c3cc(OCCN4CCOCC4)ccn3)nc(N(C)CC(=O)NC(C)(C)C)c2c1C [Compound 20, N-tert-butyl-2-[(5,6-dimethyl-2-{4-[2-(morpholin-4-yl)ethoxy]pyridin-2-yl}thieno[2,3-d]pyrimidin-4-yl)(methyl)amino]acetamide]
8 | 7.8 | Cc1sc2nc(-c3cc(OCCO)ccn3)nc(N(C)CC(=O)NC(C)(C)C)c2c1C [Compound 15, N-tert-butyl-2-({2-[4-(2-hydroxyethoxy)pyridin-2-yl]-5,6-dimethylthieno[2,3-d]pyrimidin-4-yl}(methyl)amino)acetamide]

The remaining lines, values behind:

Row | SMILES | pEC50
9 | COc1cccc(NC(=O)CN(C)c2nc(-c3cc(OCCO)ccn3)nc3sc(C)c(C)c23)c1 [Compound 8, 2-({2-[4-(2-hydroxyethoxy)pyridin-2-yl]-5,6-dimethylthieno[2,3-d]pyrimidin-4-yl}(methyl)amino)-N-(3-methoxyphenyl)acetamide] | 7.8
10 | COc1ccc(NC(=O)CN(C)c2nc(-c3cc(OCCO)ccn3)nc3sc(C)cc23)cn1 [Compound 16, 2-({2-[4-(2-hydroxyethoxy)pyridin-2-yl]-6-methylthieno[2,3-d]pyrimidin-4-yl}(methyl)amino)-N-(6-methoxypyridin-3-yl)acetamide] | 7.6
11 | COc1ccc(NC(=O)CN(C)c2nc(-c3cc(OCCO)ccn3)nc3sc(C)c(C)c23)cn1 [Compound 11, 2-([2-[4-(2-hydroxyethoxy)pyridin-2-yl]-5,6-dimethylthieno[2,3-d]pyrimidin-4-yl](methyl)amino)-N-(6-methoxypyridin-3-yl)acetamide] | 7.5
12 | Cc1sc2nc(-c3cc(OCCO)ccn3)nc(N(C)CC(=O)Nc3cccc(F)c3)c2c1C [Compound 9, N-(3-fluorophenyl)-2-({2-[4-(2-hydroxyethoxy)pyridin-2-yl]-5,6-dimethylthieno[2,3-d]pyrimidin-4-yl}(methyl)amino)acetamide] | 7.7
13 | Cc1ccc(NC(=O)CN(C)c2nc(-c3cc(OCCO)ccn3)nc3sc(C)c(C)c23)cn1 [Compound 10, 2-({2-[4-(2-hydroxyethoxy)pyridin-2-yl]-5,6-dimethylthieno[2,3-d]pyrimidin-4-yl}(methyl)amino)-N-(6-methylpyridin-3-yl)acetamide] | 7.6
14 | Cc1sc2nc(-c3cc(OCCN(C)C)ccn3)nc(N(C)CC(=O)NC3(C(F)(F)F)CC3)c2c1C [Compound 22, 2-[(2-{4-[2-(dimethylamino)ethoxy]pyridin-2-yl}-5,6-dimethylthieno[2,3-d]pyrimidin-4-yl)(methyl)amino]-N-[1-(trifluoromethyl)cyclopropyl]acetamide] | 7.5
15 | COc1ccnc(-c2nc(N(C)CC(=O)Nc3ccc(OC)nc3)c3ccsc3n2)c1 [Compound 7, 2-{[2-(4-methoxypyridin-2-yl)thieno[2,3-d]pyrimidin-4-yl](methyl)amino}-N-(6-methoxypyridin-3-yl)acetamide] | 6.6
16 | Cc1sc2nc(-c3cc(OCCN4CCN(C)CC4)ccn3)nc(N(C)CC(=O)NC(C)(C)C)c2c1C [Compound 21, N-tert-butyl-2-[(5,6-dimethyl-2-{4-[2-(4-methylpiperazin-1-yl)ethoxy]pyridin-2-yl}thieno[2,3-d]pyrimidin-4-yl)(methyl)amino]acetamide] | 7.8
17 | Cc1sc2nc(-c3cc(OCCN4C[C@@H]5C[C@H]4CO5)ccn3)nc(N(C)CC(=O)NC(C)(C)C)c2c1C [Compound 23, N-tert-butyl-2-{[5,6-dimethyl-2-(4-{2-[(1S,4S)-2-oxa-5-azabicyclo[2.2.1]heptan-5-yl]ethoxy}pyridin-2-yl)thieno[2,3-d]pyrimidin-4-yl](methyl)amino}acetamide] | 8.2
18 | COc1ccc(NC(=O)CN(C)c2nc(-c3cc(OCCO)ccn3)nc3scc(C)c23)cn1 [Compound 17, 2-({2-[4-(2-hydroxyethoxy)pyridin-2-yl]-5-methylthieno[2,3-d]pyrimidin-4-yl}(methyl)amino)-N-(6-methoxypyridin-3-yl)acetamide] | 7.7
